In patent publication US20170050957A1, “4-AMINO-6-(HETEROCYCLIC)PICOLINATES AND 6-AMINO-2-(HETEROCYCLIC)PYRIMIDINE-4-CARBOXYLATES AND THEIR USE AS HERBICIDES” (Dow AgroSciences LLC, priority 2013, published 2017):
Read-outs that look alike come from different tables or passages of the source.

What was measured:
[1] = tested on: Key Broadleaf Weed and Crop Species; experiment: Post-emergent Test II herbicidal activity (Table 15); assay type: in vivo; settings: post-emergence, 336 h, 14 d; for pest or weed control at 35 g/ha: 35 g ai/ha; for pest or weed control at 70 g/ha: 70 g ai/ha; for pest or weed control at 140 g/ha: 140 g ai/ha
Outline: (§1)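 Post-emergence spray; seedlings 7-21 d old, 1st-2nd true leaf; 187 L/ha; serial rates 1×-1/16×; solvent blank controls; subirrigated; visual % injury at 14 d.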

[2] = tested on: Key Grass and Sedge Weeds as well as Grass Crops; experiment: Post-emergent Test II herbicidal activity (Table 16); assay type: in vivo; settings: post-emergence, 336 h, 14 d; for pest or weed control at 35 g/ha: 35 g ai/ha; for pest or weed control at 70 g/ha: 70 g ai/ha; for pest or weed control at 140 g/ha: 140 g ai/ha
Outline: as §1

[3] = Abutilon theophrasti, velvetleaf (Abutilon theophrasti), read-out: Visual Growth Reduction (%) 14 Days After Application, ABUTH
[4] = Amaranthus retroflexus, redroot pigweed (Amaranthus retroflexus), read-out: Visual Growth Reduction (%) 14 Days After Application, AMARE
[5] = Brassica napus, oilseed rape, canola (Brassica napus), read-out: Visual Growth Reduction (%) 14 Days After Application, BRSNN
[6] = Chenopodium album, lambsquarters (Chenopodium album), read-out: Visual Growth Reduction (%) 14 Days After Application, CHEAL
[7] = Euphorbia heterophylla, wild poinsettia (Euphorbia heterophylla), read-out: Visual Growth Reduction (%) 14 Days After Application, EPHHL
[8] = Helianthus annuus, sunflower (Helianthus annuus), read-out: Visual Growth Reduction (%) 14 Days After Application, HELAN
[9] = Cyperus esculentus, yellow nutsedge (Cyperus esculentus), read-out: Visual Growth Reduction (%) 14 Days After Application, CYPES
[10] = Echinochloa crus-galli, barnyardgrass (Echinochloa crus-galli), read-out: Visual Growth Reduction (%) 14 Days After Application, ECHCG
[11] = Oryza sativa, rice (Oryza sativa), read-out: Visual Growth Reduction (%) 14 Days After Application, ORYSA
[12] = Setaria faberi, giant foxtail (Setaria faberi), read-out: Visual Growth Reduction (%) 14 Days After Application, SETFA
[13] = Triticum aestivum, wheat, spring (Triticum aestivum), read-out: Visual Growth Reduction (%) 14 Days After Application, TRZAS
[14] = Zea mays, maize, corn (Zea mays), read-out: Visual Growth Reduction (%) 14 Days After Application, ZEAMX

| Compound | pest or weed control at 35 g/ha [1, 3] | pest or weed control at 70 g/ha [1, 3] | pest or weed control at 140 g/ha [1, 3] | pest or weed control at 35 g/ha [1, 4] | pest or weed control at 70 g/ha [1, 4] | pest or weed control at 140 g/ha [1, 4] | pest or weed control at 35 g/ha [1, 5] | pest or weed control at 70 g/ha [1, 5] | pest or weed control at 140 g/ha [1, 5] | pest or weed control at 35 g/ha [1, 6] | pest or weed control at 70 g/ha [1, 6] | pest or weed control at 140 g/ha [1, 6] | pest or weed control at 35 g/ha [1, 7] | pest or weed control at 70 g/ha [1, 7] | pest or weed control at 140 g/ha [1, 7] | pest or weed control at 35 g/ha [1, 8] | pest or weed control at 70 g/ha [1, 8] | pest or weed control at 140 g/ha [1, 8] | melting point | pest or weed control at 35 g/ha [2, 9] | other results |
| --- | --- | --- | --- | --- | --- | --- | --- | --- | --- | --- | --- | --- | --- | --- | --- | --- | --- | --- | --- | --- | --- |
| COC(=O)c1nc(-c2ccc3sccc3c2)c(Cl)c(N)c1Cl [Compound 3.01, Methyl 4-amino-6-(benzo[b]thiophenyl-5-yl)-3,5-dichloropicolinate] | 60 to 74% | 60 to 74% | 75 to 84% | 85 to 94% | 95 to 100% | 95 to 100% | 0 to 29% | 0 to 29% | 0 to 29% | 95 to 100% | 95 to 100% | 95 to 100% | 0 to 29% | 0 to 29% | 0 to 29% | 75 to 84% | 75 to 84% | 85 to 94% | 50 to 56 °C | 0 to 29% | pest or weed control at 70 g/ha [2, 9]: 0 to 29%; pest or weed control at 140 g/ha [2, 9]: 0 to 29%; pest or weed control at 35 g/ha [2, 10]: 0 to 29%; pest or weed control at 70 g/ha [2, 10]: 0 to 29%; pest or weed control at 140 g/ha [2, 10]: 0 to 29%; pest or weed control at 35 g/ha [2, 11]: 0 to 29%; pest or weed control at 70 g/ha [2, 11]: 0 to 29%; pest or weed control at 140 g/ha [2, 11]: 0 to 29%; pest or weed control at 35 g/ha [2, 12]: 0 to 29%; pest or weed control at 70 g/ha [2, 12]: 0 to 29%; pest or weed control at 140 g/ha [2, 12]: 0 to 29%; pest or weed control at 35 g/ha [2, 13]: 0 to 29%; pest or weed control at 70 g/ha [2, 13]: 0 to 29%; pest or weed control at 140 g/ha [2, 13]: 0 to 29%; pest or weed control at 35 g/ha [2, 14]: 0 to 29%; pest or weed control at 70 g/ha [2, 14]: 45 to 59%; pest or weed control at 140 g/ha [2, 14]: 60 to 74% |
| COC(=O)c1nc(-c2cc3ccoc3cc2F)nc(N)c1OC [Compound 2.05] | 0 to 29% | 0 to 29% | 0 to 29% | 85 to 94% | 75 to 84% | 95 to 100% | 0 to 29% | 0 to 29% | 0 to 29% | 0 to 29% | 0 to 29% | 45 to 59% | 30 to 44% | 30 to 44% | 45 to 59% | 0 to 29% | 0 to 29% | 30 to 44% | 160 °C | 0 to 29% | pest or weed control at 70 g/ha [2, 9]: 0 to 29%; pest or weed control at 140 g/ha [2, 9]: 0 to 29%; pest or weed control at 35 g/ha [2, 10]: 0 to 29%; pest or weed control at 70 g/ha [2, 10]: 0 to 29%; pest or weed control at 140 g/ha [2, 10]: 0 to 29%; pest or weed control at 35 g/ha [2, 11]: 0 to 29%; pest or weed control at 70 g/ha [2, 11]: 0 to 29%; pest or weed control at 140 g/ha [2, 11]: 0 to 29%; pest or weed control at 35 g/ha [2, 12]: 0 to 29%; pest or weed control at 70 g/ha [2, 12]: 0 to 29%; pest or weed control at 140 g/ha [2, 12]: 0 to 29%; pest or weed control at 35 g/ha [2, 13]: 0 to 29%; pest or weed control at 70 g/ha [2, 13]: 0 to 29%; pest or weed control at 140 g/ha [2, 13]: 0 to 29%; pest or weed control at 35 g/ha [2, 14]: 0 to 29%; pest or weed control at 70 g/ha [2, 14]: 0 to 29%; pest or weed control at 140 g/ha [2, 14]: 0 to 29% |
